# Columns and labels:
# Type in all cases: in vivo
# [1] = system: blackgrass (Alopecurus myosuroides); assay: Test A greenhouse herbicide test, postemergence; details: for Plant response rating, Blackgrass: 125 g ai/ha, 0 to 100 scale where 0 is no effect and 100 is complete control; for Blackgrass plant response rating: 500 g ai/ha, 0 to 100 scale, 0 is no effect, 100 is complete control
# Procedure, shortened: (§1)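 Plants grown in loam soil/sand blend pots were treated postemergence at 2 to 10 cm height, one- to two-leaf stage, with formulated test chemicals. After approximately 10 d in a greenhouse, injury was rated visually against untreated controls on a 0 to 100 scale (0 no effect, 100 complete control).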
# [2] = system: galium (catchweed bedstraw, Galium aparine); assay: Test A greenhouse herbicide test, postemergence; details: for Plant response rating, Galium: 125 g ai/ha, 0 to 100 scale where 0 is no effect and 100 is complete control; for Galium plant response rating: 500 g ai/ha, 0 to 100 scale, 0 is no effect, 100 is complete control
# Procedure, shortened: as §1
# [3] = system: barnyardgrass (Echinochloa crus-galli); assay: Test B flooded paddy test; details: 250 g ai/ha, Flood; visual rating on scale of 0 to 100 where 0 is no effect and 100 is complete control; 13 to 15 d after treatment
# Procedure, shortened: (§2)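 Plants at the 2-leaf stage were flooded to 3 cm above soil, and test compounds were applied directly into the paddy water, which was held at that depth throughout. After 13 to 15 d in a greenhouse, injury was rated visually against untreated controls on a 0–100 scale (0 no effect, 100 complete control).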
# [4] = system: ducksalad (Heteranthera limosa); assay: Test B flooded paddy test; details: 250 g ai/ha, Flood; visual rating on scale of 0 to 100 where 0 is no effect and 100 is complete control; 13 to 15 d after treatment
# Procedure, shortened: as §2
# [5] = system: rice (Oryza sativa); assay: Test B flooded paddy test; details: 250 g ai/ha, Flood; visual rating on scale of 0 to 100 where 0 is no effect and 100 is complete control; 13 to 15 d after treatment
# Procedure, shortened: as §2
# [6] = system: sedge, umbrella (small-flower umbrella sedge, Cyperus difformis); assay: Test B flooded paddy test; details: 250 g ai/ha, Flood; visual rating on scale of 0 to 100 where 0 is no effect and 100 is complete control; 13 to 15 d after treatment
# Procedure, shortened: as §2
# [7] = system: morningglory (Ipomoea coccinea); assay: Test C greenhouse herbicide test, pre- and postemergence
# Procedure, shortened: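 Two application timings: at sowing into a soil/sand blend, and on 2–18 cm seedlings in peat-vermiculite potting mix. A non-phytotoxic, surfactant-containing solvent carried the compounds. Plants were compared with controls and rated visually on 0–100 after 13–15 d.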
# [8] = system: chickweed (common chickweed, Stellaria media); assay: Test C greenhouse herbicide test, postemergence
# Procedure, shortened: (§3)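 Greenhouse postemergence spray on plants 2–18 cm tall; response judged visually after 13–15 d relative to untreated controls using a 0 (none) to 100 (full control) scale.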
# [9] = system: kochia (Kochia scoparia); assay: Test C greenhouse herbicide test, postemergence
# Procedure, shortened: as §3
# [10] = system: oat, wild (wild oat, Avena fatua); assay: Test C greenhouse herbicide test, postemergence
# Procedure, shortened: as §3
# [11] = Postemergence, 31 g ai/ha, 0 to 100 scale (0 no effect, 100 complete control)
# [12] = Postemergence, 125 g ai/ha, scale 0 to 100, 0 is no effect, 100 is complete control
# [13] = Postemergence, 250 g ai/ha, scale 0 to 100, 0 no effect, 100 complete control, 13 to 15 d
# [14] = Preemergence, 31 g ai/ha, scale 0 to 100, 0 is no effect, 100 is complete control
# [15] = Preemergence, 62 g ai/ha, scale 0 to 100, 0 is no effect, 100 is complete control
# [16] = Preemergence, 125 g ai/ha, scale 0 to 100, 0 is no effect, 100 is complete control
# [17] = Preemergence, 250 g ai/ha, scale 0 to 100, 0 no effect, 100 complete control
# [18] = postemergence, 62 g ai/ha, scale 0 to 100, 0 no effect, 100 complete control
SMILES,"Plant response rating, Blackgrass [1]",Blackgrass plant response rating [1],"Plant response rating, Galium [2]",Galium plant response rating [2],"Plant response rating, Barnyardgrass [3]","Plant response rating, Ducksalad [4]","Plant response rating, Rice [5]","Plant response rating, Sedge, Umbrella [6]","Morningglory plant response rating [7, 11]","Plant response rating, Morningglory [7, 12]","Plant response rating, Morningglory [7, 13]","Plant response rating, Morningglory [7, 14]","Plant response rating, Morningglory [7, 15]","Plant response rating, Morningglory [7, 16]","Morningglory plant response rating [7, 17]","Morningglory plant response rating [7, 18]","Chickweed plant response rating [8, 11]","Plant response rating, Chickweed [8, 12]","Plant response rating, Chickweed [8, 13]","Chickweed plant response rating [8, 18]",other results
Cc1nn(C)c(=O)c(-c2ccc(F)c3ccccc23)c1O [Compound 41],70,90,80,100,30,40,0,40,95,100,98,85,95,95,98,95,95,90,100,95,"Kochia plant response rating [9, 11]: 100; Plant response rating, Kochia [9, 12]: 100; Plant response rating, Kochia [9, 13]: 100; Kochia plant response rating [9, 18]: 100; Oat, Wild plant response rating [10, 11]: 55; Plant response rating, Oat, Wild [10, 12]: 90; Plant response rating, Oat, Wild [10, 13]: 95; Oat, Wild plant response rating [10, 18]: 90"
CCc1sc2ccc(C)cc2c1-c1c(O)c(C)nn(C)c1=O [Compound 47],60,70,90,100,0,0,0,0,100,100,100,90,100,100,95,100,90,98,98,90,"Kochia plant response rating [9, 11]: 75; Plant response rating, Kochia [9, 12]: 95; Plant response rating, Kochia [9, 13]: 98; Kochia plant response rating [9, 18]: 90; Oat, Wild plant response rating [10, 11]: 5; Plant response rating, Oat, Wild [10, 12]: 30; Plant response rating, Oat, Wild [10, 13]: 50; Oat, Wild plant response rating [10, 18]: 10"
CCc1sc2c(C)cc(C)cc2c1-c1c(O)c(C)nn(C)c1=O [Compound 57],30,60,100,100,0,0,0,0,95,100,100,100,100,100,100,100,90,95,100,95,"Kochia plant response rating [9, 11]: 50; Plant response rating, Kochia [9, 12]: 70; Plant response rating, Kochia [9, 13]: 95; Kochia plant response rating [9, 18]: 65; Oat, Wild plant response rating [10, 11]: 20; Plant response rating, Oat, Wild [10, 12]: 45; Plant response rating, Oat, Wild [10, 13]: 60; Oat, Wild plant response rating [10, 18]: 35"
Cc1ccc2sc(C)c(-c3c(OC(=O)OC(C)C)c(C)nn(C)c3=O)c2c1 [Compound 66],60,80,90,90,0,0,0,0,90,100,100,80,85,80,90,95,90,95,95,95,"Kochia plant response rating [9, 11]: 90; Plant response rating, Kochia [9, 12]: 90; Plant response rating, Kochia [9, 13]: 98; Kochia plant response rating [9, 18]: 90; Oat, Wild plant response rating [10, 11]: 55; Plant response rating, Oat, Wild [10, 12]: 90; Plant response rating, Oat, Wild [10, 13]: 90; Oat, Wild plant response rating [10, 18]: 80"
Cc1ccc2ccccc2c1-c1c(OC(=O)OC(C)C)c(C)nn(C)c1=O [Compound 72],70,90,90,100,0,0,0,0,80,95,100,75,85,90,90,90,90,90,90,90,"Kochia plant response rating [9, 11]: 60; Plant response rating, Kochia [9, 12]: 90; Plant response rating, Kochia [9, 13]: 90; Kochia plant response rating [9, 18]: 85; Oat, Wild plant response rating [10, 11]: 85; Plant response rating, Oat, Wild [10, 12]: 90; Plant response rating, Oat, Wild [10, 13]: 95; Oat, Wild plant response rating [10, 18]: 95"
Cc1nn(C)c(=O)c(-c2ccc(Br)c3ccccc23)c1O [Compound 75],50,70,90,100,0,0,15,0,98,100,75,70,85,95,100,100,95,95,95,90,"Kochia plant response rating [9, 11]: 90; Plant response rating, Kochia [9, 12]: 95; Plant response rating, Kochia [9, 13]: 95; Kochia plant response rating [9, 18]: 85; Oat, Wild plant response rating [10, 11]: 40; Plant response rating, Oat, Wild [10, 12]: 40; Plant response rating, Oat, Wild [10, 13]: 35; Oat, Wild plant response rating [10, 18]: 35"
Cc1ccc2sc(Br)c(-c3c(O)c(C)nn(C)c3=O)c2c1 [Compound 79],70,80,90,90,0,0,0,0,100,100,98,90,95,98,98,100,90,90,90,90,"Kochia plant response rating [9, 11]: 50; Plant response rating, Kochia [9, 12]: 90; Plant response rating, Kochia [9, 13]: 90; Kochia plant response rating [9, 18]: 90; Oat, Wild plant response rating [10, 11]: 50; Plant response rating, Oat, Wild [10, 12]: 85; Plant response rating, Oat, Wild [10, 13]: 90; Oat, Wild plant response rating [10, 18]: 60"
